Laboratory results taken from patent publication US20110190280A1, “Thiazole And Oxazole Kinase Inhibitors” (priority 2007, published 2011).
pIC50: −log10 of the molar value. Counter-ions that a name gives are not always drawn.

Legend:
B-Raf = B-Raf (Homo sapiens, UniProt P15056); assay: B-Raf Accelerated MEK ATPase assay (BRAMA); type: biochemical; conditions: BRAMA enzyme assay; class by pIC50; read-out: B-Raf Activity
Outline: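 B-Raf activity read as intrinsic MEK ATPase: catalytic activated RAF with non-phosphorylated MEK drives ADP formation, coupled through pyruvate kinase and lactate dehydrogenase to NADH oxidation, independent of ERK phosphorylation.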

SK-MEL-28 tumor cells = assay: Cell growth inhibition assay (CellTiter-Glo), SK-MEL-28; conditions: Homo sapiens, SK-MEL-28, 72 h, read-out: Activity in SK-MEL-28 Tumor Cells;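 note: luminescent total ATP as a proxy for cell number, threefold serial dilutions at 0.2% DMSO, percent growth inhibition versus DMSO vehicle control wells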
SK-MEL-3 tumor cells = assay: Cell growth inhibition assay (CellTiter-Glo), SK-MEL-3; conditions: Homo sapiens, SK-MEL3, 72 h, read-out: Activity in SK-MEL-3 Tumor Cells;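 note: human melanoma cells grown with compound for 3 days in 0.2% DMSO, total ATP read by luminescence as proxy for cell number, growth inhibition versus DMSO-treated wells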
Colo205 tumor cells = assay: Cell growth inhibition assay (CellTiter-Glo), Colo205; conditions: Homo sapiens, COLO 205, 72 h, read-out: Activity in Colo205 Tumor Cells;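 note: growth measured via total ATP luminescence (CellTiter-Glo) as a proxy for cell number, inhibition expressed against DMSO-treated control wells, 3-day exposure at 0.2% final DMSO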
HT-29 tumor cells = assay: Cell growth inhibition assay (CellTiter-Glo), HT-29; conditions: Homo sapiens, HT-29, 72 h, read-out: Activity in HT-29 Tumor Cells;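 note: ATP content read by luminescence as proxy for cell number, growth inhibition versus DMSO vehicle wells, 0.2% DMSO final, nine serial threefold compound dilutions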
A375P tumor cells = assay: Cell growth inhibition assay (CellTiter-Glo), A375P; conditions: Homo sapiens, 72 h, read-out: Activity in A375P Tumor Cells;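 note: total ATP luminescence used as proxy for cell number, serial threefold compound dilutions at 0.2% DMSO, growth inhibition expressed versus DMSO vehicle-treated wells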
EGFR = EGFR (Homo sapiens, UniProt P00533); assay: EGFR kinase autophosphorylation assay (peptide phosphorylation, HTRF); type: biochemical; conditions: 0.8 nM EGFR, class by pIC50
Chain of EGFR (P00533 25-1210): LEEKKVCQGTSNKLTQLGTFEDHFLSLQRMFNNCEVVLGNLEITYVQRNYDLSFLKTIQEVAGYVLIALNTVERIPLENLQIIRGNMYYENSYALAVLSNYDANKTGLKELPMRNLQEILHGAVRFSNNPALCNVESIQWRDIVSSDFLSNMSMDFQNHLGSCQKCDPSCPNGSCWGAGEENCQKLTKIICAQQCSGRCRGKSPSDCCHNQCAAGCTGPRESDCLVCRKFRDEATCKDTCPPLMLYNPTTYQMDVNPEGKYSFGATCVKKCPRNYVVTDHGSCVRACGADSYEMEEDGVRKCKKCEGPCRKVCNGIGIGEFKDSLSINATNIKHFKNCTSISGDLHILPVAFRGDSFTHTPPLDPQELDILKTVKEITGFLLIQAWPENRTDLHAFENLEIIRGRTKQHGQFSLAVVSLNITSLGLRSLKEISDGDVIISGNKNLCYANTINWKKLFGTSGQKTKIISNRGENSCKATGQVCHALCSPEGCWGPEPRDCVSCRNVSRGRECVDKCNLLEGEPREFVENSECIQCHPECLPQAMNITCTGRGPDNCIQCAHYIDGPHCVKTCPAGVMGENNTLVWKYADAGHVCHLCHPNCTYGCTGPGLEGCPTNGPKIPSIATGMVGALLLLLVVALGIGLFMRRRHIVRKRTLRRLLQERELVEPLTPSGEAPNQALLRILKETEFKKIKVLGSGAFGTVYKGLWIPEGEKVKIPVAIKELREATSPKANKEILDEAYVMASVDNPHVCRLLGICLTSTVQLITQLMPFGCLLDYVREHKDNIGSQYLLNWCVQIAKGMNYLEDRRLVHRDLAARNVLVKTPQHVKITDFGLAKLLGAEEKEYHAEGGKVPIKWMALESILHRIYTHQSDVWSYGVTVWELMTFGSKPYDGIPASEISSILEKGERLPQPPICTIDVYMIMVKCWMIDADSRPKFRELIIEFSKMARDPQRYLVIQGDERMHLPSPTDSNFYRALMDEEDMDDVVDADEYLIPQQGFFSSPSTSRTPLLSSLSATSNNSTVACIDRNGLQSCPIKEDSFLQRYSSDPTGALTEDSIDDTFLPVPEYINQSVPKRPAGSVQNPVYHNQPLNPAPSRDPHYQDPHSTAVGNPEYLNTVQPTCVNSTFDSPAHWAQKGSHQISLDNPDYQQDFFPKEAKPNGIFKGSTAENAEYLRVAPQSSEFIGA
Protocol: (§1) A selection of compounds of the present invention were tested for inhibitory activity against EGFR and ErbB2 kinases in autophosphorylation assays.
(§2) The method measures the ability of the isolated enzyme to catalyse the transfer of the gamma-phosphate from ATP onto the tyrosine residue of a biotinylated synthetic peptide referenced “Peptide C” in Brignola, P. S., et al, (2002) J. Biol. Chem. 277(2):1576-1585. The extent of tyrosine phosphorylation was measured using an anti-phosphotyrosine antibody, and quantified by homogenous time-resolved fluorescence (HTRF).
(§3) Reactions were performed in black 384-well polystyrene flat-bottom plates in a final volume of 20 ul. Assays were performed by adding 10 μl of each of the following solutions, substrate Mix and enzyme mix: The Substrate mix contained 100 mM 3-[N-morpholino]propanesulfonic acid (MOPS) (pH 7.5), 2 mM MnCl2, 20 μM ATP, 0.01% Tween-20, 0.1 mg/mL (BSA), 0.8 uM peptide substrate, and 1 mM dithiothreitol. The enzyme mix contained 100 mM MOPS (pH7.5); 0.01% Tween-20; 0.1 mg/mL BSA, and either 0.8 nM EGFR, 10 nM ErbB2, or 1 nM ErbB4
(§4) The enzyme mix was added to the compound plates and the plates were incubated at 20° C. for 1 hour. The reactions were allowed to proceed for 90 minutes at 20° C. The reactions were then terminated by the addition of 20 μl 100 mM EDTA to each well. 40 μl/well of HTRF detection mix were added to the assay plates. The final concentrations of the detection reagents were: 100 mM HEPES (pH7.5), 0.1 mg/mL BSA, 15 nM streptavidin-labeled allophycocyanin (PerkinElmer), and 1 nM europium-labeled anti-phosphotyrosine antibody (PerkinElmer). Assay plates were left unsealed and were counted in a Wallac Multilabel Counter 1420 (PerkinElmer).
(§5) Compounds under analysis were dissolved in Me2SO to 1.0 mM and serially diluted 1 to 3 with Me2SO through twelve dilutions. 1 μl of each concentration was transferred to the corresponding well of an assay plate. This creates a final compound concentration range from 0.00027 to 47.6 μM.
(§6) The data for dose responses were plotted as % Inhibition calculated with the data reduction formula 100*(1−(U1−C2)/(C1−C2)) versus concentration of compound where U is the unknown value, C1 is the average control value obtained for 4.76% DMSO, and C2 is the average control value obtained for 0.035 M EDTA. Data were fitted with a curve described by:
(§7) where Vmax is the upper asymptote, Y2 is the Y intercept, and K is the IC50. The results for each compound were recorded as pIC50s, calculated as follows: […]
(§8) In the following table: • “+” indicates no pIC50 measurement greater than 6 against EGFR or ErbB2, • “++” indicates at least one pIC50 measurement greater than 6 against EGFR or ErbB2 but no measurement greater than pIC50 of 7; and • “+++” indicates at least one pIC50 measurement of greater than 7 against EGFR or ErbB2.

ErbB2 = ErbB2 (Homo sapiens, UniProt P04626); assay: ErbB2 kinase autophosphorylation assay (peptide phosphorylation, HTRF); type: biochemical; conditions: 10 nM ErbB2, HTRF; class by pIC50
Chain of ErbB2 (P04626 23-1255): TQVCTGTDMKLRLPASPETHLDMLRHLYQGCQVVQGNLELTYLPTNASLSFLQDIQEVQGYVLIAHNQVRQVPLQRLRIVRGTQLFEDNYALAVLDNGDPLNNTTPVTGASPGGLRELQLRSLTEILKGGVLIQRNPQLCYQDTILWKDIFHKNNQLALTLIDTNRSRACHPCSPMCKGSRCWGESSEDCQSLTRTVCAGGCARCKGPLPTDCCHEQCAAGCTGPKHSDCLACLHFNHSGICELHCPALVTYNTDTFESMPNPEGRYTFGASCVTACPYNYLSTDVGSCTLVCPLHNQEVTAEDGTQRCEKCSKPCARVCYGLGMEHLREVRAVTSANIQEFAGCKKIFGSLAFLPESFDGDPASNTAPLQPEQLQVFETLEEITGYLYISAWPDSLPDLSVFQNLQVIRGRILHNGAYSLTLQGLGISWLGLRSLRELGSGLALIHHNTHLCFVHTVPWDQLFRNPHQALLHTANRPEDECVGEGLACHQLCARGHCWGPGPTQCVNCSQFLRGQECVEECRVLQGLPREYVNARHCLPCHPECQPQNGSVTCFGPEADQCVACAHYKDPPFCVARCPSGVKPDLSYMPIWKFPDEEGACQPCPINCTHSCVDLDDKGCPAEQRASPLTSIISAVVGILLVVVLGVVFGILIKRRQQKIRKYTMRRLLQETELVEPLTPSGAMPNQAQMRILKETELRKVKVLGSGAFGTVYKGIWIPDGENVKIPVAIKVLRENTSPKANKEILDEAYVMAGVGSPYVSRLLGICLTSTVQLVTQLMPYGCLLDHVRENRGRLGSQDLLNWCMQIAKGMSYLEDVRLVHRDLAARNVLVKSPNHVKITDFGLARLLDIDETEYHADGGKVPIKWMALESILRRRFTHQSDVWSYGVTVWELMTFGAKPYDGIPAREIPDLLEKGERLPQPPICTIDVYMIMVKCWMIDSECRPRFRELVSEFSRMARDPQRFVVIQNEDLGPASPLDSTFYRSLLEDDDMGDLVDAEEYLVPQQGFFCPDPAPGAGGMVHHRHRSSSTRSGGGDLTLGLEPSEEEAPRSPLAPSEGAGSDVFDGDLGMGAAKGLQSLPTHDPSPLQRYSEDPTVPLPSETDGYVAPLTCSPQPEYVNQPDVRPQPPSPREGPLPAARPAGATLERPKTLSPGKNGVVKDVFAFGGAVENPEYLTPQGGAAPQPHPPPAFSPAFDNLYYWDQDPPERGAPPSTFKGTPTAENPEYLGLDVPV
Protocol: as §1, §2, §3, §4, §5, §6, §7, §8

Chain of B-Raf (P15056 whole entry): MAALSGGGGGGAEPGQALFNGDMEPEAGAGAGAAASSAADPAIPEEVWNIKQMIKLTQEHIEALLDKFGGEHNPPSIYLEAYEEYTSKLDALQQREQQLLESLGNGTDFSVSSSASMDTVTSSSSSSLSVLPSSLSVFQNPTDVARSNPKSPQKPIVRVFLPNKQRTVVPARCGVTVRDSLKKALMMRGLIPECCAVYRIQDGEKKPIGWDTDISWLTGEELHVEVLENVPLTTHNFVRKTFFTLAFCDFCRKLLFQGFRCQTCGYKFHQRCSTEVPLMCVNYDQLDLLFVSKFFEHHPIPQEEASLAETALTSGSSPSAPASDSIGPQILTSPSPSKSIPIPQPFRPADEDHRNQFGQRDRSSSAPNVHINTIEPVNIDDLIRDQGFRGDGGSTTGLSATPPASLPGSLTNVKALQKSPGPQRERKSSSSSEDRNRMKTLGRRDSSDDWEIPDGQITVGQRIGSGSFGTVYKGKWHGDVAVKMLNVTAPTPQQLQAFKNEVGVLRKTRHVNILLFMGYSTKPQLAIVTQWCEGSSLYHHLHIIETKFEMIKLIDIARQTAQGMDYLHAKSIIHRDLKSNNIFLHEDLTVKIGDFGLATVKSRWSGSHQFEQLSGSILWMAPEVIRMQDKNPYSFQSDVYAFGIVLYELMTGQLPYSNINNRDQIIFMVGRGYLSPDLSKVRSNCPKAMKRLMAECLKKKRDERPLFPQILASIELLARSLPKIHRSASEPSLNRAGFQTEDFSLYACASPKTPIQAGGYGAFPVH

Compound | pIC50 (B-Raf) | pIC50 (SK-MEL-28 tumor cells) | pIC50 (SK-MEL-3 tumor cells) | pIC50 (Colo205 tumor cells) | pIC50 (HT-29 tumor cells) | pIC50 (A375P tumor cells) | pIC50 (EGFR) | pIC50 (ErbB2)
CCNc1nc(-c2cc(OC)cc(OC)c2)c(-c2ccnc(Nc3ccc(N4CCN(C(C)=O)CC4)nc3)n2)s1 [Example 4, N-[6-(4-Acetyl-1-piperazinyl)-3-pyridinyl]-4-[4-[3,5-bis(methyloxy)phenyl]-2-(ethylamino)-1,3-thiazol-5-yl]-2-pyrimidinamine] | > 7.00 | > 6.30 | > 6.30 | > 6.30 | > 6.30 | > 6.30 | < 6.00 | < 6.00
CCNc1nc(-c2cc(OC)cc(OC)c2)c(-c2ccnc(Nc3ccc(OC4CCN(CCO)CC4)c(F)c3)n2)o1 [Example 124] | > 7.00 | 5.30 to 6.30 | > 6.30 | 5.30 to 6.30 | > 6.30 | 5.30 to 6.30 | < 6.00 | < 6.00
COc1cc(-c2nc(N3CCCC3)sc2-c2ccnc(Nc3ccc(OCCN4CCCC4)c(F)c3)n2)ccc1Cl [Example 78, 4-[4-[4-Chloro-3-(methyloxy)phenyl]-2-(1-pyrrolidinyl)-1,3-thiazol-5-yl]-N-(3-fluoro-4-{[2-(1-pyrrolidinyl)ethyl]oxy}phenyl)-2-pyrimidinamine] | > 7.00 | 5.30 to 6.30 |  | 5.30 to 6.30 |  |  | 6.00 to 7.00 | 6.00 to 7.00
COc1cc(C)cc(-c2nc(C(C)C)sc2-c2ccnc(Nc3ccc(N4CCN(C(C)=O)CC4)nc3)n2)c1 [Example 63, N-[6-(4-Acetyl-1-piperazinyl)-3-pyridinyl]-4-{2-(1-methylethyl)-4-[3-methyl-5-(methyloxy)phenyl]-1,3-thiazol-5-yl}-2-pyrimidinamine] | > 7.00 | > 6.30 | > 6.30 | > 6.30 | > 6.30 | > 6.30 | < 6.00 | < 6.00
CCNc1nc(-c2cc(OC)cc(OC)c2)c(-c2ccnc(Nc3ccc(N4CCN5CCOC[C@H]5C4)nc3)n2)o1 [Example 135] | > 7.00 | < 5.30 |  | 5.30 to 6.30 |  |  | < 6.00 | < 6.00
CCNc1nc(-c2cc(C)cc(OC)c2)c(-c2ccnc(Nc3ccc(N4CCN(C(C)=O)CC4)nc3)n2)o1 [Example 70, N-[6-(4-Acetyl-1-piperazinyl)-3-pyridinyl]-4-{2-(ethylamino)-4-[3-methyl-5-(methyloxy)phenyl]-1,3-oxazol-5-yl}-2-pyrimidinamine] |  |  | > 6.30 |  | > 6.30 | > 6.30 | < 6.00 | < 6.00
CCc1nc(-c2cc(O)cc(OC)c2)c(-c2ccnc(Nc3ccc(OC4CCN(CCS(C)(=O)=O)CC4)c(F)c3)n2)s1 [Example 74, trifluoroacetic acid salt] | > 7.00 | > 6.30 | > 6.30 | > 6.30 | > 6.30 | > 6.30 | < 6.00 | < 6.00
CCNc1nc(-c2cc(C)cc(OC)c2)c(-c2ccnc(Nc3ccc(N4CCOCC4)c(F)c3)n2)s1 [Example 28, 4-{2-(Ethylamino)-4-[3-methyl-5-(methyloxy)phenyl]-1,3-thiazol-5-yl}-N-[3-fluoro-4-(4-morpholinyl)phenyl]-2-pyrimidinamine] | > 7.00 | > 6.30 | > 6.30 | > 6.30 | > 6.30 | > 6.30 | < 6.00 | < 6.00
CCNc1nc(-c2cc(C)cc(OC)c2)c(-c2ccnc(Nc3ccc(N4CCN(CCF)CC4)c(F)c3)n2)s1 [Example 29, 4-{2-(Ethylamino)-4-[3-methyl-5-(methyloxy)phenyl]-1,3-thiazol-5-yl}-N-{3-fluoro-4-[4-(2-fluoroethyl)-1-piperazinyl]phenyl}-2-pyrimidinamine] | > 7.00 | > 6.30 | > 6.30 | > 6.30 | > 6.30 | > 6.30 | < 6.00 | < 6.00
CCNc1nc(-c2cccc(OC)c2)c(-c2ccnc(Nc3ccc(OC4CCN(CCS(C)(=O)=O)CC4)c(F)c3)n2)s1 [Example 41, 4-{2-(Ethylamino)-4-[3-(methyloxy)phenyl]-1,3-thiazol-5-yl}-N-[3-fluoro-4-({1-[2-(methylsulfonyl)ethyl]-4-piperidinyl}oxy)phenyl]-2-pyrimidinamine] | > 7.00 | > 6.30 | > 6.30 | > 6.30 | > 6.30 | > 6.30 | 6.00 to 7.00 | < 6.00
CCNc1nc(-c2cc(OC)cc(OC)c2)c(-c2ccnc(Nc3ccc(N4CCOCC4)c(F)c3)n2)o1 [Example 118] | > 7.00 | 5.30 to 6.30 | 5.30 to 6.30 | 5.30 to 6.30 | 5.30 to 6.30 | 5.30 to 6.30 | < 6.00 | < 6.00
COc1cc(C)cc(-c2nc(C(C)C)sc2-c2ccnc(Nc3ccc(N4CCOCC4)nc3)n2)c1 [Example 61, 4-{2-(1-Methylethyl)-4-[3-methyl-5-(methyloxy)phenyl]-1,3-thiazol-5-yl}-N-[6-(4-morpholinyl)-3-pyridinyl]-2-pyrimidinamine] | > 7.00 | 5.30 to 6.30 | > 6.30 | > 6.30 | > 6.30 | > 6.30 | < 6.00 | < 6.00
CCNc1nc(-c2cc(OC)cc(OC)c2)c(-c2ccnc(Nc3ccc(N4CCOCC4)c(F)c3)n2)s1 [Example 7, 4-[4-[3,5-Bis(methyloxy)phenyl]-2-(ethylamino)-1,3-thiazol-5-yl]-N-[3-fluoro-4-(4-morpholinyl)phenyl]-2-pyrimidinamine] | > 7.00 | > 6.30 | > 6.30 | > 6.30 | > 6.30 | 5.30 to 6.30 | < 6.00 | < 6.00
COc1cc(C)cc(-c2nc(C(C)C)sc2-c2ccnc(Nc3ccc(N4CCN5CCCCC5C4)c(F)c3)n2)c1 (stereo not shown) [Example 113] | > 7.00 | 5.30 to 6.30 |  | 5.30 to 6.30 |  |  | < 6.00 | < 6.00
CCNc1nc(-c2cc(OC)cc(OC)c2)c(-c2ccnc(Nc3ccc(OC4CCN(CCF)CC4)c(OC)c3)n2)o1 [Example 96] | > 7.00 | 5.30 to 6.30 | 5.30 to 6.30 | 5.30 to 6.30 | 5.30 to 6.30 | 5.30 to 6.30 |  | 
COCCN1CCN(c2ccc(Nc3nccc(-c4sc(NC5CC5)nc4-c4cc(OC)cc(OC)c4)n3)cn2)CC1 [Example 18, 4-[4-[3,5-Bis(methyloxy)phenyl]-2-(cyclopropylamino)-1,3-thiazol-5-yl]-N-(6-{4-[2-(methyloxy)ethyl]-1-piperazinyl}-3-pyridinyl)-2-pyrimidinamine] | > 7.00 | > 6.30 | > 6.30 | > 6.30 | > 6.30 | > 6.30 |  | 
